This is an account of results in patent publication US20230203060A1 (GENFLEET THERAPEUTICS (SHANGHAI) INC., priority 2020, published 2023).

In general, IC50 refers to the point on the concentration scale where inhibition reaches its midpoint.

Experiment [1] relates to KRAS G12C mutant NCI-H358 cells. Nature of the experiment: Cell proliferation inhibition experiment, 3D spheroid, CellTiter-Glo, NCI-H358. Conditions: NCI-H358 (KRAS G12C mutant) 3D spheroid, 5 days with compound, CellTiter-Glo, read-out: H358 IC50. Format: cell-based, human. The procedure, abridged:
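Luminescence (CellTiter-Glo, 30 min incubation) was read after 5 days of compound treatment of overnight-formed spheroids of 800 H358 or 400 A549 cells in 2% FBS medium. Inhibition relative to DMSO and blank controls was fitted with a four-parameter model to yield IC50.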

A further experiment deals with T1, KRAS G12C (Homo sapiens, UniProt P01116, G12C).
T1 construct: purchased Reactionbiology
T1 sequence (P01116 1-188 isoform P01116-2 G12C): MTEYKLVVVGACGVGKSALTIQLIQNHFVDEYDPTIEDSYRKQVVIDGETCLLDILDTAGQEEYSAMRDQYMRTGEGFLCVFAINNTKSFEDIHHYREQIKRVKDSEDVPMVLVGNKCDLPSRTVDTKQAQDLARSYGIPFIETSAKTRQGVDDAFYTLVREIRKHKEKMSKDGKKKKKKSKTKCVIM
Nature of the experiment: KRAS G12C NEA-HTRF experiment (SOS1-catalyzed displacement of GDP by GTP). The format is biochemical. An excerpt:
Raw materials and instruments: KRAS G12C (his-tag) purchased from Reactionbiology; batch number 3496; SOS1 purchased from Reactionbiology; batch number: 3501; GTP purchased from Sigma; article number: G8877; batch number: SLBV1450; Tris-HC1 purchased from Sigma; EDTA purchased from absin; article number: abs42017668; batch number: JE20; NaCl purchased from Sigma; article number: 55886; batch number: SLBW4193; MgCl2 purchased from Shyuanye; article number: R21455; batch number: L07S9G69806; HEPES purchased from Life Technologies; article number: 15630-080; batch number: 2037042; DTT purchased from Thermo Fisher; article number: R0862; batch number: 00608918; Triton X-100 purchased from Sigma; article number: T8787-100 ML; batch number: SLBW7103; DY647-labeled GDP purchased from Jena Bioscience; article number: NU-840-647P1; batch number: BM019-045; Anti-6H1S-Tb purchased from Cisbio; article number: 61H12TLA; batch number: 13A; Bradford Assay Kit purchased from Thermo Fisher; article number: 23246; batch number: UG287474; white opaque 96-well plate purchased from Cisbio; article number: 66PL96025; batch number: N°06; NAP-5 column purchased from GE Healthcare; article number: 17085301; batch number: 16995164; mircoplate reader purchased from PerkinElmer; model: Envision MLD2105-0020; equipment number 1050369. The effect of compounds on SOS1-catalyzed displacement of GDP by GTP on KRAS protein was examined using a homogeneous time-resolved fluorescence (HTRF) method. 30 μM 6×his-tagged KRAS G12C recombinant protein was incubated with 80 μM fluorescent dye DY647-labeled GDP in labeling buffer (1 mM DTT, 7.5 mM EDTA, 25 mM Tris-HCl, 45 mM NaCl) at 20° C. in the dark for 2 hours, purified using NAP-5 column, and then protein quantification was performed with Bradford Assay Kit after purification to determine the concentration of KRAS […] 3.16-fold gradient concentration stock solution of 1000× compound was prepared with DMSO, and diluted 250-fold to 4× compound stock solution with reaction buffer (40 mM HEPES, 10 mM MgCl2, 1 mM DTT, 0.002% Triton X-100). KRAS G12C-GDP/Tb working solution (40 nM KRAS […] Tb) and SOS1/GTP working solution (0.2 μM SOS1, 200 μM GTP) were prepared using the reaction buffer. A white opaque 96-well plate was taken, and 5 μL of 4× compound stock solution and 10 μL of KRAS G12C-GDP/Tb working solution were added to each well. 5 μL of reaction buffer instead of 4x compound stock solution was used in the control well. After incubation in the dark for 15 minutes at 20° C., 5μL of SOS1/GTP working solution was added thereto, and the fluorescence value (excitation wavelength: 320 nm, emission wavelength: 615 nm and 665 nm) was read after incubating at 20° C. in the dark for 2 hours. Another T0 group was set up with 10 μL reaction buffer+10 μL KRAS G12C-GDP/Tb working solution, and the fluorescence value was read directly by the microplate reader. The fluorescence signal ratio RLU=(665 nm signal/615 nm signal)×10^4; and the compound inhibition rate IR (%)=(RLUcompound-RLUcontrol)/(RLUT0-RLUcontrol)×100% were calculated. The IC50 value was calculated by fitting the gradient dilution concentration of compound and the corresponding inhibition rate with the four-parameter method. The NEA activity of the compounds prepared in the above embodiments of the present disclosure was 0.0001 μM to 1 μM; the inhibitory activity of some compounds on KRAS G12C mutant MIA PaCa-2 cells was 0.001 μM to 0.5 μM or 0.001 μM to 0.1 μM.

In experiment [2] the test system is KRAS G12C mutant MIA PaCa-2 cells. Nature of the experiment: Cell proliferation inhibition experiment, 3D spheroid, CellTiter-Glo, MIA PaCa-2. The format is cell-based, human. Conditions: Homo sapiens, MIA PaCa-2, 120 h, 3D cell model in 384-well spheroid plate, 5 days, CellTiter-Glo; read-out: MIA-PaCa2 IC50. The essentials: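 200 MIA PaCa-2 cells/well grown overnight as 3D spheroids, then exposed to 3.16-fold compound dilutions (0.1% DMSO final) for 5 days. Viability read by CellTiter-Glo luminescence; inhibition calculated against DMSO and medium-only controls, and IC50 fitted by four-parameter model.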
On the technique in general: Cellular ATP, detected with luciferase, serves as a proxy for viable cell number.

Like-named read-outs stand apart in the source and are kept apart here. Bounds are passed on as bounds.

For `C=CC(=O)N1CCN2C(=O)c3c(N4CCN(C)[C@H](C)[C@@H]4C)nc(-c4c(O)cccc4F)c(Cl)c3OC[C@H]2C1` (relative stereo) [Z465, (6aR)-8-acryloyl-4-chloro-3-(2-fluoro-6-hydroxyphenyl)-1-(cis-2,3,4-trimethylpiperazin-1-yl)-12-oxo-6,6a,7,8,9,10-hexahydro-12H-pyrazino[2,1-c]pyrido[3,4-f][1,4]oxazepin-12-one], the results for the IC50 (in experiment [1]; at KRAS G12C) were 38 nM and 275 nM, respectively. Consider `C=CC(=O)N1CCN2C(=O)c3c(N4C[C@@H](O)[C@@H]4C)nc(-c4c(O)cccc4F)c(Cl)c3OC[C@H]2C1` (single isomer, unassigned) [Z102-1], for which the IC50 came out at 51.3 nM in experiment [1] (Homo sapiens, NCI-H358, 120 h) and 194 nM on KRAS G12C. `C=CC(=O)N1CCN2C(=O)c3c(N4C[C@@H](N(C)CCOC)CC4(C)C)nc(-c4ccccc4F)c(Cl)c3OC[C@H]2C1` (single isomer, unassigned) [Z406-2]: the IC50 came out at 21 nM in experiment [1] (Homo sapiens, NCI-H358, 120 h) and 175 nM on KRAS G12C. The compound `C=CC(=O)N1CCN2C(=O)c3c(N4C[C@H](O)CC4(C)C)nc(-c4c(F)ccc(F)c4O)c(F)c3OC[C@H]2C1` (single isomer, unassigned) [Z449-2] came in with an IC50 on KRAS G12C of 389 nM.

On to `C=CC(=O)N1CCN2C(=O)c3c(N4C[C@H](C(=O)O)CC4(C)C)nc(-c4c(O)cccc4F)c(Cl)c3OC[C@H]2C1` (single isomer, unassigned) [Z458-2], for which the 50% inhibitory concentration (IC50) was 252 nM on KRAS G12C and above 1000 nM in experiment [2].

Regarding `C=CC(=O)N1CCN2C(=O)c3c(N4CCN(C)[C@H](C)[C@@H]4C)nc(-c4ccccc4F)c(Cl)c3OC[C@H]2C1` (single isomer, unassigned) [Z465-2], on KRAS G12C, the IC50 was above 10000 nM.

In the case of `C=CC(=O)N1CCN2C(=O)c3c(N4CCC[C@@]4(C)C(=O)NC)nc(-c4c(F)cccc4OC)c(Cl)c3OC[C@H]2C1` (single isomer, unassigned) [Z466-1], the IC50 in experiment [1] (Homo sapiens, NCI-H358, 120 h) was 49 nM; at KRAS G12C, 764 nM. On to `C=CC(=O)N1CCN2C(=O)c3c(N4CCC[C@@]4(C)C(=O)NC)nc(-c4c(F)cccc4OC)c(Cl)c3OC[C@H]2C1` (single isomer, unassigned) [Z466-2], for which the results for the IC50 (in experiment [1]; on KRAS G12C) were 38 nM and 383 nM, respectively. Turning to `C=CC(=O)N1CCN2C(=O)c3c(N4C[C@H](N5CCN(C)CC5)CC4(C)C)nc(-c4ccccc4F)c(F)c3OC[C@H]2C1` (single isomer, unassigned) [Z474-2], the IC50 was found to be 63.3 nM in experiment [1] (Homo sapiens, NCI-H358, 120 h) and 593 nM on KRAS G12C.

Consider `C=CC(=O)N1CCN2C(=O)c3c(N4CC(N5CC(OC)C5)CC4(C)C)nc(-c4ccccc4F)c(Cl)c3OC[C@H]2C1` (single isomer, unassigned) [Z479-2], for which the IC50 is 74.9 nM in experiment [1] (Homo sapiens, NCI-H358, 120 h) and 431 nM at KRAS G12C. As for `C=CC(=O)N1CCN2C(=O)c3c(N4CC(N5CC(F)C5)CC4(C)C)nc(-c4ccccc4F)c(Cl)c3OC[C@H]2C1` (single isomer, unassigned) [Z480-2], the IC50 in experiment [1] (Homo sapiens, NCI-H358, 120 h) turned out to be 155 nM; at KRAS G12C, 321 nM. With `C=CC(=O)N1CCN2C(=O)c3c(N4C[C@@H](C)O[C@H](C)C4)nc(-c4c(O)cccc4F)c(Cl)c3OC[C@H]2C1` [Z248-2, (6aR)-8-acryloyl-4-chloro-1-((2R,6R)-2,6-dimethylmorpholino)-3-(2-fluoro-6-hydroxyphenyl)-6,6a,7,8,9,10-hexahydro-12H-pyrazino[2,1-c]pyrido[3,4-f][1,4]oxazepin-12-one], the 50% inhibitory concentration (IC50) in experiment [1] (Homo sapiens, NCI-H358, 120 h) was 16 nM; at KRAS G12C it was 169 nM.

Compound `C=CC(=O)N1CCN2C(=O)c3c(N4Cc5nncn5CC4C)nc(-c4c(O)cccc4F)c(Cl)c3OC[C@H]2C1` (stereo partly drawn) [Z277-1, (6aR)-8-acryloyl-4-chloro-3-(2-fluoro-6-hydroxyphenyl)-1-(6-methyl-5,6-dihydro-[1,2,4]triazolo [4,3-a]pyrazin-7(8H)-yl)-6,6a,7,8,9,10-hexahydro-12H-pyrazino[2,1-c]pyrido[3,4-f][1,4]oxazepin-12-one] returned an IC50 at KRAS G12C of 33 nM. On KRAS G12C, `C=CC(=O)N1CCN2C(=O)c3c(N4CC5CCC(=O)N5C[C@@H]4C)nc(-c4c(O)cccc4F)c(Cl)c3OC[C@H]2C1` (stereo partly drawn) [Z330-1, (6aR)-8-acryloyl-4-chloro-3-(2-fluoro-6-hydroxyphenyl)-1-((3S)-3-methyl-6-oxohexahydropyrrolo[1,2-c]pyrazin-2 (1H)-yl)-6,6a,7,8,9,10-hexahydro-12H-pyrazino[2,1-c]pyrido[3,4-f][1,4]oxazepin-12-one] returned a concentration for half-maximal inhibition (IC50) of 226 nM. Consider `C=CC(=O)N1CCN2C(=O)c3c(N4CCN(CCOC)C(C)(C)C4)nc(-c4ccccc4F)c(Cl)c3OCC2C1` (stereo not drawn) [Z478, 8-acryloyl-4-chloro-3-(2-fluorophenyl)-1-(4-(2-methoxyethyl)-3,3-dimethylpiperazin-1-yl)-6,6a,7,8,9,10-hexahydro-12H-pyrazino[2,1-c]pyrido[3,4-f][1,4]oxazepin-12-one], for which the IC50 is 29.6 nM in experiment [1] (Homo sapiens, NCI-H358, 120 h) and 423 nM at KRAS G12C.

At KRAS G12C, `C=CC(=O)N1CCN2Cc3c(C(=O)N(C)C(C)C)nc(-c4ccccc4F)c(Cl)c3OC[C@H]2C1` [Z656, (R)-8-acryloyl-4-chloro-3-(2-fluorophenyl)-N-isopropyl-N-methyl-6a,7,8,9,10,12-hexahydro-6H-pyrazino[2,1-c]pyrido[3,4-f][1,4]oxazepine-1-carboxamide] had an IC50 above 10000 nM.
